Experimental data: patent US7223865B2, “Chromogenic compounds, and use thereof as enzyme substrates” (Biomerieux, priority 2003, dated 2007)

Key:
Assay in all cases: L-alanine-aminopeptidase activity on gelled medium, Example 8
Type in all cases: cell-based
Design in all cases: key to growth: ++ means good growth; + means moderate growth; +/− means poor growth; NG means no growth
[1] = system: Listeria monocytogenes (NCTC 11994)
Method: (§1) A gelled medium comprising these three substrates is prepared as follows: 30 mg of each substrate are dissolved (heating) in 10 ml of sterile distilled water. Ten ml of this solution are then added to 90 ml of Columbia agar kept molten at 50° C.
(§2) Various strains of microorganisms derived from the NCTC collection (National Collection of Type Cultures, Colindale, UK) were seeded onto the media thus obtained according to multipoint inoculation: for each strain, a drop of 10 μl of a suspension at 0.5 McFarland is deposited onto each of the culture media.
(§3) The colonies formed were examined visually after incubation for 24 h and 48 h. The color and the growth of these colonies were noted.

[2] = system: Enterobacter cloacae (NCTC 11936)
Method: as §1, §2, §3

[3] = system: Pseudomonas aeruginosa (NCTC 10662)
Method: as §1, §2, §3

[4] = system: Shigella sonnei (NCTC 9774)
Method: as §1, §2, §3

[5] = system: Enterococcus faecium (NCTC 7171)
Method: as §1, §2, §3

[6] = system: Staphylococcus aureus (NCTC 6571)
Method: as §1, §2, §3

[7] = system: Enterococcus faecalis (NCTC 12697)
Method: as §1, §2, §3

[8] = system: Serratia marcescens (NCTC 10211)
Method: as §1, §2, §3

[9] = system: Klebsiella pneumoniae (NCTC 10896)
Method: as §1, §2, §3

[10] = system: Burkholderia cepacia (NCTC 10743)
Method: as §1, §2, §3

[11] = system: Salmonella poona (NCTC 4840)
Method: as §1, §2, §3

[12] = system: E. coli O157 (NCTC 12079)
Method: as §1, §2, §3

[13] = system: Salmonella typhimurium (NCTC 74)
Method: as §1, §2, §3

[14] = system: Staphylococcus aureus (NCTC 11939)
Method: as §1, §2, §3

[15] = system: Enterococcus faecalis (NCTC 755)
Method: as §1, §2, §3

C[C@H](N)C(=O)N[C@@H](C)C(=O)Nc1ccc(-c2c3ccccc3[n+](C)c3ccccc23)cc1.[Cl-] [L-Ala-L-Ala-4-AP-10-MA]
color of colonies ([1]; 24 h): Colorless | growth ([1]; 24 h): ++ | color of colonies ([1]; 48 h): Colorless | growth ([1]; 48 h): ++ | color of colonies ([2]; 24 h): Orange | growth ([2]; 24 h): ++ | color of colonies ([2]; 48 h): Orange | growth ([2]; 48 h): ++ | color of colonies ([3]; 24 h): Orange | growth ([3]; 24 h): ++ | color of colonies ([3]; 48 h): Orange | growth ([3]; 48 h): ++ | color of colonies ([4]; 24 h): Orange | growth ([4]; 24 h): ++ | color of colonies ([4]; 48 h): Orange | growth ([4]; 48 h): ++ | color of colonies ([5]; 24 h): Colorless | growth ([5]; 24 h): ++ | color of colonies ([5]; 48 h): Colorless | growth ([5]; 48 h): ++ | growth ([6]; 24 h): NG | growth ([6]; 48 h): NG | color of colonies ([7]; 24 h): Colorless | growth ([7]; 24 h): ++ | color of colonies ([7]; 48 h): Colorless | growth ([7]; 48 h): ++ | color of colonies ([8]; 24 h): Orange | growth ([8]; 24 h): ++ | color of colonies ([8]; 48 h): Orange | growth ([8]; 48 h): ++ | color of colonies ([9]; 24 h): Orange | growth ([9]; 24 h): ++ | color of colonies ([9]; 48 h): Orange | growth ([9]; 48 h): ++ | color of colonies ([10]; 24 h): Orange | growth ([10]; 24 h): ++ | color of colonies ([10]; 48 h): Orange | growth ([10]; 48 h): ++ | color of colonies ([11]; 24 h): Orange | growth ([11]; 24 h): ++ | color of colonies ([11]; 48 h): Orange | growth ([11]; 48 h): ++ | color of colonies ([12]; 24 h): Orange | growth ([12]; 24 h): ++ | color of colonies ([12]; 48 h): Orange | growth ([12]; 48 h): ++ | color of colonies ([13]; 24 h): Orange | growth ([13]; 24 h): ++ | color of colonies ([13]; 48 h): Orange | growth ([13]; 48 h): ++ | color of colonies ([14]; 24 h): Colorless | growth ([14]; 24 h): ++ | color of colonies ([14]; 48 h): Colorless | growth ([14]; 48 h): ++ | color of colonies ([15]; 24 h): Colorless | growth ([15]; 24 h): ++ | color of colonies ([15]; 48 h): Colorless | growth ([15]; 48 h): ++

C[C@H](N)C(=O)N[C@@H](C)C(=O)N[C@@H](C)C(=O)Nc1ccc(-c2c3ccccc3[n+](C)c3ccccc23)cc1.[Cl-] [L-Ala-L-Ala-L-Ala-4-AP-10-MA]
color of colonies ([1]; 24 h): Colorless | growth ([1]; 24 h): ++ | color of colonies ([1]; 48 h): Colorless | growth ([1]; 48 h): ++ | color of colonies ([2]; 24 h): Orange | growth ([2]; 24 h): ++ | color of colonies ([2]; 48 h): Orange | growth ([2]; 48 h): ++ | color of colonies ([3]; 24 h): Orange | growth ([3]; 24 h): ++ | color of colonies ([3]; 48 h): Orange | growth ([3]; 48 h): ++ | color of colonies ([4]; 24 h): Orange | growth ([4]; 24 h): ++ | color of colonies ([4]; 48 h): Orange | growth ([4]; 48 h): ++ | color of colonies ([5]; 24 h): Colorless | growth ([5]; 24 h): ++ | color of colonies ([5]; 48 h): Colorless | growth ([5]; 48 h): ++ | color of colonies ([6]; 24 h): Colorless | growth ([6]; 24 h): ++ | color of colonies ([6]; 48 h): Colorless | growth ([6]; 48 h): ++ | color of colonies ([7]; 24 h): Colorless | growth ([7]; 24 h): ++ | color of colonies ([7]; 48 h): Colorless | growth ([7]; 48 h): ++ | color of colonies ([8]; 24 h): Orange | growth ([8]; 24 h): ++ | color of colonies ([8]; 48 h): Orange | growth ([8]; 48 h): ++ | color of colonies ([9]; 24 h): Orange | growth ([9]; 24 h): ++ | color of colonies ([9]; 48 h): Orange | growth ([9]; 48 h): ++ | color of colonies ([10]; 24 h): Orange | growth ([10]; 24 h): ++ | color of colonies ([10]; 48 h): Orange | growth ([10]; 48 h): ++ | color of colonies ([11]; 24 h): Orange | growth ([11]; 24 h): ++ | color of colonies ([11]; 48 h): Orange | growth ([11]; 48 h): ++ | color of colonies ([12]; 24 h): Orange | growth ([12]; 24 h): ++ | color of colonies ([12]; 48 h): Orange | growth ([12]; 48 h): ++ | color of colonies ([13]; 24 h): Orange | growth ([13]; 24 h): ++ | color of colonies ([13]; 48 h): Orange | growth ([13]; 48 h): ++ | color of colonies ([14]; 24 h): Colorless | growth ([14]; 24 h): ++ | color of colonies ([14]; 48 h): Colorless | growth ([14]; 48 h): ++ | color of colonies ([15]; 24 h): Colorless | growth ([15]; 24 h): ++ | color of colonies ([15]; 48 h): Colorless | growth ([15]; 48 h): ++
